The source of these data is patent US12697322B2, “Methods of treating cancer using androgen receptor antagonists” (Garvan Institute of Medical Research, priority 2019, dated 2026).

The test system of experiment [1] is ELX12-58 PDX model. Kind of experiment: ELX12-58 PDX model with PEG-Doxorubicin or Cisplatin and Seviteronel (FIG. 15). The note with it: ELX-12-58 PDX. The experiment is classed as in vivo, NSG female mice. An excerpt:
Freshly cut tumour chunks derived from a previously expanded tumour (ELX12-58 PDX model) were transferred into the mammary fat pad of NSG female mice. 15 animals were enrolled per treatment arm. Tumour size was monitored by caliper measurement as previously described. At the time tumour size reached 50-150 mm^3 animals were randomized into treatment arms: Vehicle (Veh), PEG-Doxorubicin (PEG-Dox) and PEG-Dox+Sev. Drug preparation and treatment administration was followed as previously described for the first round of treatment. PEG-Dox (Liposomal Doxorubicin Sun. R:202827) was administrated by weekly injections to a final concentration of 4 mg/kg. At treatment end-point animals were harvested and primary tumour, lymph node metastasis (if present), lung and liver were collected to generate FFPEs for histopathology analysis. […] Treatment was extended for 2 additional weeks, following the 3rd dose of chemotherapy, administrating a total of 5 EPG-Dox injections for these animals. Animals were followed up for 2.5 months, culling mice before if reached ethical end-point. Primary tumour and organs to determine metastatic burden were collected.

Experiment [2] has as its system HMLER and HCC38 CD44^Lo cells. Put plainly: Flow cytometry of chemotherapy-induced CD44^Lo to CD44^Hi plasticity. The experiment is classed as cell-based, human. The note with it: one dose of chemotherapy for 72 hours. An excerpt:
Cells were stained and fixed as with DHT treatment.
Using purified populations of CD44^Lo cells (with no CD44^Hi fraction) the effects of chemotherapy on cellular plasticity was investigated using flow cytometry.
A general note: A flow cytometer gives signals particle by particle.

For `N.N.[Cl][Pt][Cl]` [Cisplatin], the tumour burden result in experiment [1] is given as “did not reduce ELX-12-58 tumour burden”. The “induction of CD44^Lo-to-CD44^Hi transition by chemotherapy” value in experiment [2] was “induce CD44^Lo cells to transition to the CD44^Hi state”.
